Active and inactive are the calls of the source.
Tests used:
[1] = molecular target: Mitogen-activated protein kinase 10 (Homo sapiens, UniProt P53779); experiment: Dose response biochemical screening assay for inhibitors of c-Jun N-Terminal Kinase 3 (JNK3). [Related pubchem assays: 746 ]
[2] = HEp-2 cell cytotoxicity, dose response, cytotoxicity control for RSV inhibitor project, HTS (AID 2410); format: functional; details: human respiratory syncytial virus
[3] = cells
[4] = molecular target: T1, Epstein-Barr nuclear antigen 1 (Epstein-Barr virus (strain B95-8) (HHV-4) (Human herpesvirus 4), UniProt P03211); experiment: EBNA-1 inhibitors, dose response, biochemical, fluorescence polarization, 1536-well (AID 2381); design: species or system human gammaherpesvirus 4;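 also: fluorescence polarization of a Cy5 DNA probe bound by EBNA-1 protein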
T1 sequence (P03211 whole entry): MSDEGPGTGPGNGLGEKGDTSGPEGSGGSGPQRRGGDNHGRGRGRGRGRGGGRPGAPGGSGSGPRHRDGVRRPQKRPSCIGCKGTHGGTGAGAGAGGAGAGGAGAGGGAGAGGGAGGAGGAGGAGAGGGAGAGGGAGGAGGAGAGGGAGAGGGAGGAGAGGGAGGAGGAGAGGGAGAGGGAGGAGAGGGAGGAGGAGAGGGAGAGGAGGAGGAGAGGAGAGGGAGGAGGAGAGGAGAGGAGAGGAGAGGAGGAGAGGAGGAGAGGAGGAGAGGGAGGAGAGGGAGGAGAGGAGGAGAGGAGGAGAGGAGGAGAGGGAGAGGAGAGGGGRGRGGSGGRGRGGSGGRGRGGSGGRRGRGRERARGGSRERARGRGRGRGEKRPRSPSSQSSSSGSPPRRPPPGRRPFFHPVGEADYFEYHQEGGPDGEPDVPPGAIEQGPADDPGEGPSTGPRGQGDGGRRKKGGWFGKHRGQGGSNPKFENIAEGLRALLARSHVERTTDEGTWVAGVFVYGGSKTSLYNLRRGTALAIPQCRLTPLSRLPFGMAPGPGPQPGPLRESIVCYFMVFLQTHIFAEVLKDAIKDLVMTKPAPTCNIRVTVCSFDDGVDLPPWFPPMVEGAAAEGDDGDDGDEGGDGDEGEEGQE

[5] = molecular target: T2, Lytic switch protein BZLF1 (Epstein-Barr virus (strain B95-8) (HHV-4) (Human herpesvirus 4), UniProt P03206); experiment: EBV ZTA inhibitors, dose response, counter-screen for EBNA-1 inhibitor project, biochemical, fluorescence polarization, Epstein-Barr virus, 1536-well (AID 2377); design: species or system human gammaherpesvirus 4;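 also: fluorescence polarization of Cy5-labelled ZRE DNA probe bound by purified Zta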
T2 sequence (P03206 whole entry): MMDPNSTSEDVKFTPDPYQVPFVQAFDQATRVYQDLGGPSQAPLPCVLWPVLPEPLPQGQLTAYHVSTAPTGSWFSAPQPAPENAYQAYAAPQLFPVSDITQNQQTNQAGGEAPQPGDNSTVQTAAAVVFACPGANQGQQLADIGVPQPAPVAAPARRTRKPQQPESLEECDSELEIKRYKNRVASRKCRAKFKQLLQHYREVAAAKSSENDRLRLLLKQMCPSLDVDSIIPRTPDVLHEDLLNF

[6] = molecular target: T3, Mannose-6-phosphate isomerase (Homo sapiens, UniProt P34949); experiment: human PMI inhibitors, high substrate, primary screen, biochemical, fluorescence intensity, high mannose 6-phosphate (AID 1220)
T3 sequence (P34949 whole entry): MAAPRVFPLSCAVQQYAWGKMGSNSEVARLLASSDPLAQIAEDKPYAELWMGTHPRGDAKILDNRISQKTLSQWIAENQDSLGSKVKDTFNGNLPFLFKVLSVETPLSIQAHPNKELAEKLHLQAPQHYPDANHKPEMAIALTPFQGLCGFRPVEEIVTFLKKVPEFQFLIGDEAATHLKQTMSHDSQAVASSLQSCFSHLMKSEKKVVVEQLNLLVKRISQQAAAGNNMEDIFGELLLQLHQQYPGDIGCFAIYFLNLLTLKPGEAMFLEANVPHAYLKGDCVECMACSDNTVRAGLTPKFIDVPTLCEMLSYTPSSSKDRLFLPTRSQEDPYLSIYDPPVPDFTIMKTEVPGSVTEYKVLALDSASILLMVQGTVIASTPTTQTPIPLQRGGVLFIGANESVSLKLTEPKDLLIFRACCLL

[7] = molecular target: T4, Short transient receptor potential channel 4 (Mus musculus, UniProt Q9QUQ5); experiment: mouse TRPC4 channel activators, dose response, cell-based, HEK293 TRPC4/mu-opioid, Fluo-4 calcium (AID 434937); format: functional
T4 sequence (Q9QUQ5 whole entry): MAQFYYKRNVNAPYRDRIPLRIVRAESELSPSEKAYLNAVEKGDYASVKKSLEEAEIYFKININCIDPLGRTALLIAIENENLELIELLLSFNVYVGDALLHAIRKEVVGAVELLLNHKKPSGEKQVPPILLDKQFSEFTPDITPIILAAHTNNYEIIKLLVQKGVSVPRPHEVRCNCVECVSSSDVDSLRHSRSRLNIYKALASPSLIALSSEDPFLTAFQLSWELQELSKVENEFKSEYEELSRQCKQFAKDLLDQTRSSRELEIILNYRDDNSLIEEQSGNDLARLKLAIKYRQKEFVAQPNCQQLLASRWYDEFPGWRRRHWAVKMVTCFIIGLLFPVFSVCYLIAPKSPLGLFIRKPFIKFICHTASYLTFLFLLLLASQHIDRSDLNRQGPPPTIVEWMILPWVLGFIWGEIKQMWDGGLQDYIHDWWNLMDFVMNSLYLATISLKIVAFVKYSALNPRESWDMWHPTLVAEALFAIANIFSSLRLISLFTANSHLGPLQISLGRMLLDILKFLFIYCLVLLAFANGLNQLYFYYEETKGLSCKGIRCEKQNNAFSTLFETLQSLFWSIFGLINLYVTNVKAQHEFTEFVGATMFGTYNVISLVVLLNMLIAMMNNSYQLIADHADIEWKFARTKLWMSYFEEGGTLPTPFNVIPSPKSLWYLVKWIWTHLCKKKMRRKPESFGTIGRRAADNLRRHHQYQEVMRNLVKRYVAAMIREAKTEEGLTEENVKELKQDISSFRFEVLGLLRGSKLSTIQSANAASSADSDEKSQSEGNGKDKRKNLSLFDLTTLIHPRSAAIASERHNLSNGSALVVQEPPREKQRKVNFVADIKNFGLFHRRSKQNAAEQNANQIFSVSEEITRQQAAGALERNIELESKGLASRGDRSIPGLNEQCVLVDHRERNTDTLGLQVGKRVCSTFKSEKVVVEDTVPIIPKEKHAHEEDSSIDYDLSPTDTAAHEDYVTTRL

[8] = inhibitors of clade B AD8 Env fusion, dose response, cell-based, cherry-pick (AID 652062); format: functional;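 also: luciferase signal from cell-cell fusion driven by HIV-1 clade B AD8 Env; potency is for inhibitors of fusion seen as a drop in luminescence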
[9] = inhibitors of HIV Env-driven cell fusion, dose response, cherry-pick (AID 652057); format: functional, cell-based
[10] = CEM21 lymphoblast cell cytotoxicity, dose response, cytotoxicity control for viral fusion inhibitor project, CellTiter-Glo luminescence, cherry-picked (AID 652042); format: functional, cell-based;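 also: potency for signal decrease meaning cytotoxicity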
[11] = off-target signal loss in HeLa-CEM21 co-culture – HeLa F-luc CTL cells, cherry-picked, counter-screen for HIV-1 Env fusion inhibitor project, dose response (AID 652040); format: functional, cell-based;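 also: potency for signal decrease marking cytotoxic or nonspecific inhibition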
[12] = ZM109 Env clade C HIV-1 fusion inhibitors, dose response, HeLa effector, CEM target cells, luciferase, cherry-pick (AID 652058); format: functional, cell-based
[13] = THP-1 cell cytotoxicity, dose response, cytotoxicity control for Vif-APOBEC3G degradation inhibitor project, THP-1 cells (AID 1117359); format: functional; details: Human immunodeficiency virus 1, THP-1

Chain of Mitogen-activated protein kinase 10 (P53779 whole entry): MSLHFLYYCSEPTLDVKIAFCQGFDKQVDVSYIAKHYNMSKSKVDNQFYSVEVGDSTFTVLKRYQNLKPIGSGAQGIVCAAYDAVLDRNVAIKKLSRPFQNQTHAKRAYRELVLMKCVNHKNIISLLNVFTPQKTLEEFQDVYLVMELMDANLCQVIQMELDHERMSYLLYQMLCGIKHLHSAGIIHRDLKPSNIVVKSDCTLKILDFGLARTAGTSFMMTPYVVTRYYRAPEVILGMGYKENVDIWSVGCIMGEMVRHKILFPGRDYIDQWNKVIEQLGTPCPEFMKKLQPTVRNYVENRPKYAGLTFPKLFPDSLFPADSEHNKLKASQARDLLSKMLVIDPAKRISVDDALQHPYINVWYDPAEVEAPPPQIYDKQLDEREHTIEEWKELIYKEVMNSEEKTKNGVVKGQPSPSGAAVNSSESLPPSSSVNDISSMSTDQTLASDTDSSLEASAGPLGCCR

COC(=O)c1sccc1NC(=O)CN1CCN(c2ccc(F)cc2)CC1
IC50 [1]: 15.6 µM (not active) | CC50 [2]: 22.2 µM (active)

CCOC(=O)c1ccc(Cn2cnc3ccccc3c2=O)cc1
IC50 [1]: 12.3 µM (not active)

C/C(N)=C(/C#N)C(=O)CN1C(=O)NC(Cc2c[nH]c3ccccc23)C1=O (configuration not stated)
IC50 [3]: 1.91 µM (active)

COc1ccc(-c2cn3c(C)c(C(=O)NCc4ccc5c(c4)OCO5)sc3n2)cc1
IC50 [4]: 4.84 µM (active) | IC50 [5]: > 111 µM (not active)

COc1cc(-c2nc3n(n2)C(c2cccc(OC)c2OC)C2=C(O)CCCC2=N3)cc(OC)c1OC (configuration not stated)
IC50 [4]: 12.9 µM (not active) | IC50 [5]: > 111 µM (not active)

O=[N+]([O-])c1ccc2c(c1NCCO)=NC1(CCCCC1)[N+]=2[O-]
IC50 [6]: > 50 µM (not active)

COc1ccc(-c2nnc(OCc3nc4ccccc4n3C)c3ccccc23)cc1
IC50 [3]: 14.7 µM (active) | CC50 [2]: 38.6 µM (active)

Cc1ccc(NC(=O)CSc2nnc(NC(=O)c3ccc(S(=O)(=O)N4CCOCC4)cc3)s2)cc1
IC50 [4]: 15.7 µM (not active) | IC50 [5]: > 111 µM (not active)

O=C(Nc1ccccc1F)c1cc2c(s1)-c1ccccc1S(=O)(=O)C2
IC50 [4]: 15.9 µM (not active) | IC50 [5]: 93.7 µM (not active)

COc1cc(C)c(CNCCc2c[nH]c3ccccc23)cc1C
EC50 [7]: 2.66 µM (active) | AC50 [8]: 6.52 µM (active) | AC50 [9]: 1.51 µM (active) | AC50 [10]: 22.9 µM (active) | AC50 [11]: 3.7 µM (active) | AC50 [12]: 0.482 µM (active)

C=CCN1C(=O)c2ccc(C(=O)N3CCN(c4ccccc4OC)CC3)cc2C1=O
CC50 [13]: > 40 µM (active)

From ChEMBL document CHEMBL1201862, “PubChem BioAssay data set” (2004)
